The supplement of paper PMC10307832

Columns and labels:
Experiment in all cases: relative viability (nuclei count vs DMSO), 5 days (fraction); higher = more cells survive
[1] = compound: CC(C)C[C@H](NC(=O)[C@H](Cc1ccccc1)NC(=O)c1cnccn1)B(O)O [Bortezomib] + Cc1cc(Nc2cc(N3CCN(C)CC3)nc(Sc3ccc(NC(=O)C4CC4)cc3)n2)n[nH]1 [Tozasertib] (partner 0.1 µM)
How it was run: (§1)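 Dosing by pin tool came one day after lung cancer cell lines were seeded in 1536-well plates, using either one drug or a fixed anchor-drug dose plus five library-drug doses (not always all listed) in √10 steps. After 5 days, nuclei were counted on 4× images. Relative viability is treated-well nuclei count divided by vehicle-well nuclei count, and values are medians of duplicate plates.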

[2] = compound: CC(C)C[C@H](NC(=O)[C@H](Cc1ccccc1)NC(=O)c1cnccn1)B(O)O [Bortezomib] + COc1cc2c(Oc3ccc(NC(=O)C4(C(=O)Nc5ccc(F)cc5)CC4)cc3F)ccnc2cc1OCCCN1CCOCC1 [Foretinib] (partner 0.25 µM)
How it was run: as §1

[3] = compound: CC(C)C[C@H](NC(=O)[C@H](Cc1ccccc1)NC(=O)c1cnccn1)B(O)O [Bortezomib] + CC(=O)c1c(C)c2cnc(Nc3ccc(N4CCNCC4)cn3)nc2n(C2CCCC2)c1=O [Palbociclib] (partner 0.5 µM)
How it was run: as §1

[4] = compound: CC(C)C[C@H](NC(=O)[C@H](Cc1ccccc1)NC(=O)c1cnccn1)B(O)O [Bortezomib] + Nc1nc2[nH]cc(CCc3ccc(C(=O)N[C@@H](CCC(=O)O)C(=O)O)cc3)c2c(=O)[nH]1 [Pemetrexed] (partner 0.2 µM)
How it was run: as §1

NCI-H650 was tested. Which relative viability ([1]; first compound 0.000632 µM) did it give?
Its relative viability is 0.697.

And the relative viability ([1]; first compound 0.002 µM)?
Its relative viability is 0.637.

And the relative viability ([1]; first compound 0.006325 µM)?
The relative viability was 0.286.

And the relative viability ([1]; first compound 0.02 µM)?
The relative viability was 0.133.

What about the relative viability ([2]; first compound 0.000632 µM) of the same cell line?
Its relative viability is 1.08.

What about the relative viability ([2]; first compound 0.002 µM) of the same cell line?
The relative viability was 0.847.

And the relative viability ([2]; first compound 0.006325 µM)?
Its relative viability is 0.4.

And the relative viability ([2]; first compound 0.02 µM)?
The relative viability was 0.173.

What about the relative viability ([3]; first compound 0.0002 µM) of the same cell line?
The relative viability was 0.335.

What about the relative viability ([3]; first compound 0.000632 µM) of the same cell line?
Its relative viability is 0.27.

What about the relative viability ([3]; first compound 0.002 µM) of the same cell line?
Its relative viability is 0.31.

What about the relative viability ([3]; first compound 0.006325 µM) of the same cell line?
Its relative viability is 0.243.

What about the relative viability ([3]; first compound 0.02 µM) of the same cell line?
The relative viability was 0.149.

And the relative viability ([4]; first compound 0.0002 µM)?
Its relative viability is 0.914.

And the relative viability ([4]; first compound 0.000632 µM)?
The relative viability was 0.997.

And the relative viability ([4]; first compound 0.002 µM)?
Its relative viability is 0.878.

And the relative viability ([4]; first compound 0.006325 µM)?
The relative viability was 0.85.

And the relative viability ([4]; first compound 0.02 µM)?
The relative viability was 0.16.
